Consider one substance from patent US5976875A, “Diacylglycerol kinase isoforms epsilon and zeta and methods of use thereof” (priority 1997, dated 1999).

Where two headings read alike, the source gives them in different places. Some results are limits rather than exact numbers.

One may read the Km as the concentration of substrate that gives half-maximal velocity.

Assay [1] has as its system protein kinase M (PKM), catalytic fragment of mixed rat brain PKC isozymes. The experiment in a line: Phosphorylation of peptides by PKM (kinetics). It is filed as biochemical. The note with it: for Km: FIG. 15C. As for the experimental part: Phosphorylation of peptides and proteins--Peptides were phosphorylated by the purified catalytic fragment of mixed rat brain PKC isozymes (protein kinase M; PKM). In all cases involving kinetic measurements, the peptides were phosphorylated by PKM (1:120 dilution of frozen stock solution) at 30° C. All reactions were performed in the linear range of peptide phosphorylation, in an assay mixture containing 40 mM Hepes (pH 7.4), 0.25 mM EGTA, 12.5 mM MgCl2, 75 μM y-[^32 P]ATP, and various concentrations of peptides. In the peptide experiments, the reactions were stopped after 10 minutes by the addition of 1/5 vol of 5×SDS sample buffer, boiled for 5 minutes and then subjected to electrophoresis on 20% acrylamide gels. After the gels were dried, the phosphorylated peptides were localized by autoradiography, excised from the gel, and subjected to Cerenkov scintillation counting.

In assay [2] the target is protein kinase M (PKM), catalytic fragment of mixed rat brain PKC isozymes. The experiment in a line: Inhibition of PKM phosphorylation of histone IIIS. The note with it: histone IIIS as substrate, 10 minute reaction; read-out: half-maximal inhibition of PKM. The format is biochemical. As for the experimental part: When the inhibitory effects of the DGK A/S peptide were assayed, histone IIIS (final concentration 20 μg/ml or as specified) was used as a substrate for PKM (1:80 dilution of frozen stock) in the reaction mixture described above. The reaction was linear for at least 40 minutes at 30° C.; 10 and 15 minute time points were chosen to evaluate inhibitory effects of the peptide. The peptide was added to the reaction mixture for 10 min at 30° C. in a shaking water bath before the reactions were started by the addition of Mg/ATP; samples were assayed using filter papers (P81, Whatman) and trichloroacetic acid precipitation.

Regarding “DGK(A/S) peptide: same peptide with an alanine substituted for the serine at residue 10 (SEQ ID NO: 16) (KASKKKKRAAFKRKSSKK)”, the “rate of phosphorylation relative to native peptide” value in assay [1] (0.2 mM peptide, identical conditions) was “approximately 1/6”. In addition, the Michaelis constant (Km) was greater than 800 µM in assay [1] (read-out: Km of possible second, still lower affinity site) and roughly 50 µM in assay [1] (initial portion of the rectangular hyperbola, read-out: Km as substrate for PKM). In addition, the IC50 in assay [2] is roughly 800 nM.
